Experimental data as given in patent publication US9914739B2, “6H-furo[2,3-E]indole compounds for the treatment of hepatitis C” (BRISTOL-MYERS SQUIBB COMPANY, priority 2014, dated 2018).

Legend:
HCV = conditions: cited from earlier work
[1] = test system: genotype 1b (Con-1) HCV replicon; assay: HCV replicon luciferase assay, genotype 1b; assay type: cell-based; conditions: Hepatitis C virus, Huh-7, 72 h, Huh-7 cells with genotype 1b HCV replicon, Renilla luciferase, 3 days incubation
Protocol: The cell lines used to evaluate compounds consist of a human hepatocyte derived cell line (Huh-7) that constitutively expresses a genotype 1b (Con-1) HCV replicon or a genotype 1b (Con-1) HCV replicon with an asparagine replacing the cysteine at amino acid 316, or a genotype 2a (JFH-1) replicon, containing a Renilla luciferase reporter gene. These cells were maintained in Dulbecco's modified Eagle medium (DMEM) containing 10% FBS, 100 U/mL penicillin/streptomycin and 1.0 mg/mL G418.
To evaluate compound efficacy, titrated compounds were transferred to sterile 384-well tissue culture treated plates, and the plates were seeded with HCV replicon cells (50 μL at a density of 2.4×10^3 cells/well) in DMEM containing 4% FBS (final DMSO concentration at 0.5%). After 3 days incubation at 37° C., cells were analyzed for Renilla Luciferase activity using the EnduRen substrate (Promega cat #E6485) according to the manufacturer's directions. Briefly, the EnduRen substrate was diluted in DMEM and then added to the plates to a final concentration of 7.5 μM. The plates were incubated for at least 1 h at 37° C. then read on a Viewlux Imager (PerkinElmer) using a luminescence program. The 50% effective concentration (EC50) was calculated using the four-parameter logistic formula noted above.

Compound | EC50 ([1]; class symbol) [µM] | also measured
alpha-interferon and ribavirin | – | sustained efficacy (HCV; patients, combination therapy): 40 % of patients
pegylated alpha-interferon | – | efficacy as monotherapy compared with unmodified alpha-interferon (HCV; recent clinical results, monotherapy): superior to unmodified alpha-interferon
CNC(=O)c1c(-c2ccc(F)cc2)oc2cc(N(CCO)S(C)(=O)=O)c(C3CC3)cc12 [HCV-796] | – | hepatic toxicity (HCV; extended dosing of the combination regimens): hepatic toxicity observed
CNC(=O)c1c(-c2ccc(F)cc2)oc2c1cc(-c1cccc(C(=O)NCC(C)(C)C)c1)c1[nH]ccc12 [Compound 4001, 2-(4-fluorophenyl)-N-methyl-5-(3-(neopentylcarbamoyl)phenyl)-6H-furo[2,3-e]indole-3-carboxamide] | < 0.1 | EC50 ([1]; numeric value): 0.083 µM
CNC(=O)c1c(-c2ccc(F)cc2)oc2c1cc(-c1cccc(C(=O)NC(C)(C)C)c1)c1[nH]ccc12 [Compound 1005, 5-(3-(tert-butylcarbamoyl)phenyl)-2-(4-fluorophenyl)-N-methyl-6H-furo[2,3-e]indole-3-carboxamide] | < 0.1 | EC50 ([1]; numeric value): 0.05 µM
CNC(=O)c1c(-c2ccc(F)cc2)oc2c1cc(-c1cccc(C(=O)NC(C)(C)c3ccc(Cl)cc3)c1)c1c2ccn1S(C)(=O)=O [Compound 5006] | < 0.1 | –
CNC(=O)c1c(-c2ccc(F)cc2)oc2c1cc(OC(C)C)c1[nH]cc(C(=O)C(=O)O)c12 [Compound 2002] | > 1 | –
CNC(=O)c1c(-c2ccc(F)cc2)oc2c1cc(-c1cccc(C(=O)NC(C)(C)C)c1)c1[nH]cc(C(=O)C(=O)O)c12 [Compound 2004, 2-(5-(3-(tert-butylcarbamoyl)phenyl)-2-(4-fluorophenyl)-3-(methylcarbamoyl)-6H-furo[2,3-e]indol-8-yl)-2-oxoacetic acid] | > 1 | –
CNC(=O)c1c(-c2ccc(F)cc2)oc2c1cc(-c1cccc(C(=O)O)c1)c1c2ccn1C(=O)C(F)(F)F [Compound 3002, 3-(2-(4-fluorophenyl)-3-(methylcarbamoyl)-6-(2,2,2-trifluoroacetyl)-6H-furo[2,3-e]indol-5-yl)benzoic acid] | > 1 | –
CNC(=O)c1c(-c2ccc(F)cc2)oc2c1cc(-c1cccc(C(=O)NC(C)(C)C)c1)c1[nH]c(-c3ccccc3)cc12 [Compound 1007] | 0.1 to 1 | –
CNC(=O)c1c(-c2ccc(F)cc2)oc2c1cc(-c1cccc(C(=O)O)c1)c1[nH]ccc12 [Compound 3001, 3-(2-(4-fluorophenyl)-3-(methylcarbamoyl)-6H-furo[2,3-e]indol-5-yl)benzoic acid] | > 1 | –
CNC(=O)c1c(-c2ccc(F)cc2)oc2c1cc(-c1cccc(C(=O)OC(C)(C)C)c1)c1[nH]ccc12 [Compound 1004, tert-butyl 3-(2-(4-fluorophenyl)-3-(methylcarbamoyl)-6H-furo[2,3-e]indol-5-yl)benzoate] | 0.1 to 1 | –
